The target of this assay is M1 receptor (Oryctolagus cuniculus, UniProt G1SR55). In words: Functional assay of M1 receptor activity, electrically stimulated rabbit vas deferens preparation. The text has this: M1 receptor activity of a compound of the invention may be examined with the rabbit vas deferens using a method developed from that described previously (Dorje F, Rettenmayr N, Mutschler E and Lambrecht G, Eur J Pharmacol 1991, 203, 417-420). The tissue is stimulated electrically to contract and the conditions are optimized so that M1 receptor agonists produce a concentration-related inhibition of contraction height. Any activity at M2 receptors is indicated by an increase in the contraction height. M2 receptor activity may also be recorded from increases in contraction of the guinea-pig paced left atria. M3 receptor activity is measured from the contraction of the guinea-pig ileum. […]
Sequence of M1 receptor (G1SR55 1-460): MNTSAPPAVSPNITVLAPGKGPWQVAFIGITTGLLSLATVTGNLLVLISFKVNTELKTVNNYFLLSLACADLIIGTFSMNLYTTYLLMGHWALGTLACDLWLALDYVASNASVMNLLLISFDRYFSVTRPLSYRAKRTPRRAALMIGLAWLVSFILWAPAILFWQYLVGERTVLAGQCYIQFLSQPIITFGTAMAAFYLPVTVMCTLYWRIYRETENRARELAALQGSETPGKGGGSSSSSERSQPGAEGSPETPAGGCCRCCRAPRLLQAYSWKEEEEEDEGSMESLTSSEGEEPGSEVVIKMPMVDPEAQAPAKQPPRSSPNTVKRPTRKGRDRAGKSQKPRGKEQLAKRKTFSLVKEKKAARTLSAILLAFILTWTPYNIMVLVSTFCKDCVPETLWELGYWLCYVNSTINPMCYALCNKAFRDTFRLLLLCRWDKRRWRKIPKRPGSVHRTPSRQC
Initial evaluation of the test compound is by assay of functional tissue responses. This has the advantage that it readily discriminates between agonist, partial agonist and antagonist activity. […]
Male New Zealand white rabbits (1.47-3.4 Kg) are killed by a blow to the back of the head and vasa deferentia removed, dissected free of connective tissue and divided into prostatic and epididmyal portions. […] Isometric tension is recorded by computer at a sampling rate of 100 Hz, using Powerlab/200 (ADInstruments) software and MacLab bridge amplifiers. […]

pEC50: −log10 of the molar value.

Turning to `COCC1CNCC2(C3CCC3)C1OC(=O)N2Cc1ccccc1` (centres unmarked) [Example 1, 3-Benzyl-3a-cyclobutyl-7-methoxymethyl-2-oxo-octahydro-oxazolo[4,5-c]pyridin-5-ium], the pEC50 (in general, −log10 of the EC50, conventionally taken in molar units) (M1 agonism, inhibition of twitch height in field-stimulated rabbit vas deferens, read-out: potency (EC50 value)) was 7.00. Further, the “partial M1 agonist (extent of agonism)” value (rabbit vas deferens functional tissue response) is reported as 50%.
